A word on the IC50: it is the point on the concentration scale where inhibition reaches its midpoint.

The test system of assay [1] is IL-1β production in CD14^+ cells. In words: LPS stimulation-induced IL-1β production in CD14^+ cells. In kind it is cell-based, human. To be noted: for IC50: Homo sapiens, 72 h, LPS 500 ng/mL, 3 days. The method, then: Cryopreserved PBMCs were quickly thawed in a 37° C. thermostat and added to a tube containing medium. After centrifugation (at room temperature at 300 g for 10 minutes) to remove the supernatant, the cells were suspended again in the medium, followed by counting the number of viable cells. The cell suspension was centrifuged (at room temperature at 300 g for 10 minutes) to remove the supernatant, followed by addition of MACS Buffer to suspend the cells, to which Human CD14 MicroBeads were further added. After being allowed to stand on ice for 15 minutes, the cell suspension was diluted with MACS Buffer and centrifuged (at room temperature at 300 g for 10 minutes) to remove the supernatant. MACS Buffer was added to the tube, and the cells were suspended and then applied to a separatory column to separate CD14^+ cells. The CD14^+ cell fraction was diluted with the medium and then centrifuged (at room temperature at 300 g for 10 minutes). The supernatant was removed and the cells were suspended in the medium (1 mL), followed by counting the number of viable cells. The cell suspension was adjusted with the medium to 2.4×10^5 or 3×10^5 cells/mL and seeded in a 96-well plate (2.4×10^4 cells/well), which was then allowed to stand in a CO2 incubator for 1 to 2 hours.
The culture supernatants collected in 1.2.10 were quantified for IL-1β using Human IL-1β DuoSet ELISA.

For assay [2], the system named is TNF-α production from CD8^+ T cells. In words: T-cell stimulation bead-induced TNF-α production in CD8^+ T cells. In kind it is cell-based, human. To be noted: CD3/CD28 stimulation, 3 days. The method, then:
Cryopreserved PBMCs were quickly thawed in a 37° C. thermostat and added to a tube containing medium. After centrifugation (at room temperature at 300 g for 10 minutes) to remove the supernatant, the cells were suspended in the medium, a portion of which was then mixed with a trypan blue solution to count the number of viable cells. The cell suspension was centrifuged (at room temperature at 300 g for 10 minutes) to remove the supernatant, followed by addition of MACS Buffer in a volume of 80 μL per 1×10^7 cells to suspend the cells, to which Human CD8 MicroBeads (20 μL) were further added. After being allowed to stand on ice for 15 minutes, the cell suspension was diluted with MACS Buffer (2 mL) and centrifuged (at room temperature at 300 g for 10 minutes) to remove the supernatant.
MACS Buffer (500 μL) was added to the tube, and the cells were suspended and then applied to a separatory column to separate CD8^+ cells. The CD8^+ cell fraction was diluted to 15 mL with the medium and then centrifuged (at room temperature at 300 g for 10 minutes). The supernatant was removed and the cells were suspended in the medium (1 mL), followed by counting the number of viable cells. The cell suspension adjusted with the medium to 1×10^6 cells/mL was seeded in a 96-well plate in a volume of 100 μL/well (1×10^5 cells/well) and allowed to stand in a CO2 incubator for 1 to 2 hours.
The culture supernatants collected in 1.2.1 were quantified for TNF-α using Human TNF-α DuoSet ELISA.

In assay [3] the test system is killer activity of CAR-T cells. Description: Killer activity of CAR-T cells (CAR-T cells, target cells and CD14^+ cells, luciferase). In kind it is cell-based, human. To be noted: 2 days. The source says: FMC63 scFv, the hinge, transmembrane and cytoplasmic domains of CD28 and the cytoplasmic domain of CD3-ζ were used to construct anti-CD19 CAR on the basis of the method of Kochenderfer, et al.^15). The sequence was obtained from GenBank (HM852952) and an IDT codon optimization tool (http://sg.igtdna.com/CodonOpt) was used to remove BamHI recognition sequences within FMC63. The optimized FMC63-28z sequence was chemically synthesized and amplified by polymerase chain reaction (PCR) with the following primer set.
The PCR product was inserted into the multicloning site (EcoRI and BamHI) of lentivirus plasmid CSII-EF-MCS-2A-eGFP by using an In-Fusion HD cloning kit to obtain CSII-EF-FMC63-28z-2A-eGFP. To prepare a lentivirus vector, CSII-EF-FMC63-28z-2A-eGFP and a packaging plasmid (pMDLg/p.RRE, pRSV-rev and pMD.G) were co-transfected into Lenti-X293T cells. The prepared lentivirus vector was infected into peripheral blood mononuclear cells stimulated with anti-CD3 antibody, anti-CD28 antibody and IL-2, followed by FACS sorting to obtain a CD3-positive and eGFP-positive fraction as CAR-T cells.
On the basis of the method of Kochenderfer, et al.^15), the open reading frame of human CD19 was synthesized and amplified by PCR with the following primers. […]
Subsequently, luciferase activity was determined by detection of emission intensity with an EnSpire 2300.

The subject of assay [4] is TNF-α production in PBMCs. In words: LPS stimulation-induced TNF-α production in PBMCs. The following applies: Homo sapiens, PBMC. The class given is cell-based. The method, then: Cryopreserved PBMCs were quickly thawed in a 37° C. thermostat and added to a tube containing medium. After centrifugation (at room temperature at 300 g for 10 minutes) to remove the supernatant, the cells were suspended again in the medium (10 mL), followed by counting the number of viable cells. After centrifugation (at room temperature at 300 g for 10 minutes) to remove the supernatant, the medium was added to suspend the cells at 1×10^6 cells/mL. This cell suspension was seeded in a 96-well plate in a volume of 100 μL/well (1×10^5 cells/well). […] The cells were cultured in a CO2 incubator for 3 days to collect the culture supernatants.
The culture supernatants collected in 1.2.2 were quantified for TNF-α using Human TNF-α DuoSet ELISA.

Molecules are shown by their SMILES. Structures can show the parent of a compound that is named as a salt.

For the molecule `CCOC(=O)[C@H](Cc1ccccc1)NC(=O)c1cc(Cl)c(OCCN2CCN(C)CC2)c(Cl)c1O` [JTE-607, (−)-ethyl N-{3,5-dichloro-2-hydroxy-4-[2-(4-methylpiperazin-1-yl)ethoxy]benzoyl}-L-phenylalaninate dihydrochloride], the IC50 in assay [1] is 3.45 nM; in assay [2] (dihydrochloride) it was 231 nM; in assay [2] (Homo sapiens, T-cell, 72 h), 231 nM; in assay [4], 30.7 nM. Besides, the “effect on the killer activity of CAR-T cells” value in assay [3] was “did not affect”.
With `C[C@]12C=CC(=O)C=C1CC[C@@H]1[C@@H]2[C@@H](O)C[C@@]2(C)[C@H]1CC[C@]2(O)C(=O)CO` [PSL, Prednisolone], the IC50 in assay [1] is above 30000 nM; in assay [2], 35 nM; in assay [2] (Homo sapiens, T-cell, 72 h), 34.8 nM; in assay [4] it was 73 nM. Besides, the “suppressive effect on IL-1β production” value in assay [1] (LPS) was “no suppressive effect”. Moreover, the “effect on the killer activity of CAR-T cells” value in assay [3] was “suppressive effect on the killer activity of CAR-T cells in a concentration-dependent manner”.

Source of the values: patent publication US11744830B2, “Ameliorative agent for cytokine release syndrome and so on” (TORII PHARMACEUTICAL CO., LTD., priority 2018, dated 2023).
